# Assay results published in patent publication US9359363B2, “Identification of compounds that disperse TDP-43 inclusions” (priority 2011, dated 2016).
# Where two headings read alike, the source gives them in different places.
# Key:
# [1] = test system: TDP-43 inclusions in PC12 cells expressing WT TDP-43::GFP; experiment: High-throughput screen for inhibition of TDP-43 inclusion formation in inducible TDP-43::GFP PC12 cells (IN Cell Analyzer); conditions: read-out: Inhibition of TDP-43 Inclusion Formation EC50
# Experimental: We generated a Tet-Off inducible PC12 cell line (Clontech; the parent line stably expresses high levels of the Tetracycline binding protein) that is stably transfected with a WT TDP-43::GFP (where the GFP is at the C-terminus). […] The high-throughput screen used the arsenite (50 μM, 18 hrs) treatment protocol, where arsenite was added 1 hr after the test compounds.
# We used the automated GE IN Cell Analyzer 1000 microscope system for high throughput analyses. Test chemicals were added to the cells 48 hrs after induction of TDP-43 (by removal of doxycycline). After another 24 hrs, the cells were fixed and double-stained with DAPI (to detect nuclei). Inclusions present in a collar around the nucleus but not fully co-localized with the DAPI stain (FIG. 1) were identified by the IN-Cell analyzer as inclusions. The computer counted the number of cells (based on DAPI-positive nuclei), TDP-43 levels and inclusions per field. The counts from 6 different fields within a well were averaged to develop a measure of the mean number of inclusions per field. This was repeated for every well in a 384 well plate and every plate in the library.
# PC12 cells are grown in DMEM, 10% NBS/Pen-Strep, 100 μg/ml hygromycin, 50 μM puromycin and 50 μg/ml doxycycline (the latter is removed for TDP-43 induction).
# [2] = test system: C. elegans expressing human WT TDP-43 (CK405); experiment: Motor function in C. elegans expressing human WT TDP-43; format: in vivo; conditions: transgenic TDP-43 nematodes, line not specified
# Text: Determining whether compounds delay deterioration of motor function in C. elegans expressing TDP-43 in C. elegans: C. elegans is generally used as a simple in vivo model of disease bridging the gap between in vitro studies and in vivo studies in rodents (J Biol Chem, 2005. 280: 42655-68; J Neurosci, 2009. 29: 9210-8; Neurodegener Dis, 2010. 7: 68-75; each herein incorporated by reference in its entirety). Accordingly, C. elegans lines expressing TDP-43 (WT, G294A and A315T), obtained from Brian Kraemer, can be used to determine whether the indentified compounds ameliorate motor dysfunction associated with TDP-43 expression (J Neurosci, 2010. 30: 16208-19; herein incorporated by reference in its entirety). […] Movement and survival are calculated at adult days 1, 3 and 5, using methods described in the art (see, e.g., J. Neurosci. 2010 December 1, 30(48):16208-19; IEEE Trans Biomed Eng. 2004 October 51(10):1811-20, each herein incorporated by reference in its entirety).
# In one example, eggs (C. elegans expressing A315T TDP-43, line CK426) were plated on agar containing the test compound. On day 4, movement of C. elegans was quantified and moved to plates with fresh compounds. On day 5, movement of C. elegans was again quantified. […]
# [3] = test system: non-transgenic N2 C. elegans; experiment: Motor function in non-transgenic N2 C. elegans; format: in vivo; conditions: non-transgenic N2 line; FIG. 19 varying doses, FIG. 21 34.8 μM
# [4] = test system: mutant TDP-43 inclusions in human BE-M17 neuroblastoma cells; experiment: Arsenite-induced TDP-43 inclusion formation in BE-M17 cells; format: cell-based; conditions: arsenite 0.5 mM, 1 hr, 10 μg/ml
# Text: The inventors transfected human BE-M17 neuroblastoma cells with WT TDP-43, TDP-4386-414 or TDP-43216-414 constructs N-terminally tagged with GFP. Full length WT TDP-43 localized to the nucleus under basal conditions (FIG. 15, WT TDP-43 shown). To investigate TDP-43 aggregation under the stressful conditions, cells were exposed to arsenite, an agent classically used to induce SGs (Biochem Soc Trans, 2002, 30, 963-9; J Cell Biol, 2000, 151, 1257-68; J Cell Biol, 1999, 147, 1431-42; each herein incorporated by reference in its entirety). Arsenite causes stress through multiple mechanisms (Toxicol Appl Pharmacol, 2001, 177, 132-48; herein incorporaed by reference in its entirety). Arsenite directly induces oxidative stress by reacting with oxygen in a reaction similar to the Fenton reaction, and arsenite also uses up glutathione, which causes further oxidative stress (Toxicol Appl Pharmacol, 2001, 177, 132-48; herein incorporaed by reference in its entirety). Upon exposure to arsenite (1 hr) WT TDP-43 remained largely nuclear, but a small amount translocated to the cytoplasm where it formed inclusions (FIG. 15A, right panels, arrows). To determine whether the inclusions co-localized with SGs, we co-labeled the cells with antibodies to SG markers, including TIA-1, eIF3 and poly-A binding protein (PABP) (FIG. 15). […] Co-localization with other SG markers is also observed. […]
# [5] = PC12 TDP-43::GFP cells, arsenite 50 μM, 18 hrs, representative values
Compound,"EC50 [1, 5]",other results
CC(C)(C)c1ccc(S(=O)(=O)Nc2ccc(SCc3nc(OCC(F)(F)F)cc(OCC(F)(F)F)n3)cc2)cc1 [Compound 2-1],152 nM,
C#CCNCC1(c2ccccc2)CCN(CCCCOC(c2ccc(F)cc2)c2ccc(F)cc2)CC1 [Compound 2-2],290 nM,
OC1(c2ccccc2)CCN(CCCCOC(c2ccc(F)cc2)c2ccc(F)cc2)CC1 [Compound 2-3],1920 nM,
Cc1ccc2ncnc(Nc3cccc(Cl)c3)c2c1 [Compound 2-4],10 nM,
Cc1cc2cc(CCNS(=O)(=O)c3ccc(Cl)cc3)c(=O)[nH]c2cc1C [Compound 2-5],1290 nM,
COCc1ccc(C(=O)NC(CC(C)C)c2nnc3n2CCN(Cc2cc4ccccc4o2)CC3)o1 (stereo not drawn) [Compound 2-7],11 nM,
COc1cccc(CN2CCN(C(=O)c3cc4ccccc4[nH]3)CCC2=O)c1 [Compound 2-8],180 nM,
CCN(CC1CCCN(CCc2ccccc2OC)C1)C(=O)c1cc2ccccc2[nH]1 (stereo not drawn) [Compound 2],74 nM,
COc1cc(NC(=O)CCC2CCCN(Cc3ccc(F)c(OC)c3)C2)cc(OC)c1 (stereo not drawn) [Compound 3],39 nM,
COc1ccccc1OCC(=O)NC1CCCN(c2ccc(C(F)(F)F)cn2)C1 (stereo not drawn) [Compound 4],98 nM,
COc1ccc(C2C(C(=O)Nc3ccccc3OC)=C(C)Nc3nc4ccccc4n32)cc1 (stereo not drawn) [Compound 5],306 nM,
COc1ccc(NC(=O)C(Cc2ccccc2)NS(=O)(=O)c2cccc3cccnc23)cc1 (stereo not drawn) [Compound 6],15 nM,
CCc1ccc(NC(=O)C(Cc2ccccc2)NS(=O)(=O)c2cccc3cccnc23)cc1 (stereo not drawn) [Compound 7],139 nM,motor function [2]: improves motor function; motor function [3]: improves motor function
"COc1c(C)c2c(c(O)c1C/C=C(\C)CCC(=O)O)C(=O)OC2 [Mycophenolic acid, reference compound]",,"EC50 ([1]; Rattus norvegicus, PC-12, 18 h): 1500 nM"
C[C@@H]1C[C@@H]([C@H](O)CC2CC(=O)NC(=O)C2)C(=O)[C@@H](C)C1 [cycloheximide],,formation of inclusions composed of mutant TDP-43 constructs [4]: reversible
Mithramycin A [reference compound],2000 nM,
